Reference: PubChem BioAssay (NCI)
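Briefly, cells in 96-well plates were exposed to five compound concentrations for 48 h, and endpoints were estimated by linear interpolation. GI50 = concentration required for 50% inhibition of growth. At the TGI there is no net growth.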

What follows are compounds tested on HCT-116 colon (assay: growth of human tumour cells (NCI), 48 h).

SMILES	TGI [µM]
COc1ccc(C[N+]23C(CC[C@H]2c2ccccc2)CC[C@H]3c2ccccc2)cc1 (stereo partly specified)	> 100
CC(=O)c1sc2c(c1OC(=O)c1cccs1)c(=O)n(-c1ccccc1)c(=S)n2-c1ccccc1	36.6
NS(=O)(=O)c1ccc(-n2c(-c3cccs3)nc3ccc(I)cc3c2=O)cc1	31
CCOC(=O)CC1c2ccc(O)cc2OC(=O)C1c1ccc([N+](=O)[O-])cc1 (stereo unspecified)	82.3
CCOC(=O)C1(C(=O)OCC)CN(CC)CN(c2ccccc2)C1	> 100
COC1=C(Br)[C@H](O)[C@@]2(C=C1Br)CC(C(=O)NCCCCCN=C(N)N)=NO2	> 10
CC(=O)OC1CC2c3cccc4c3C(CC2N(C)C1=O)CN4C(=O)c1ccccc1 (stereo unspecified)	32.8

Each compound was assayed on UO-31 renal (assay: growth of human tumour cells (NCI), 48 h).

SMILES	TGI [µM]
COc1ccc(C[N+]23C(CC[C@H]2c2ccccc2)CC[C@H]3c2ccccc2)cc1 (stereo partly specified)	> 100
NS(=O)(=O)c1ccc(-n2c(-c3cccs3)nc3ccc(I)cc3c2=O)cc1	42.6
CCOC(=O)C1(C(=O)OCC)CN(CC)CN(c2ccccc2)C1	46.6
COC1=C(Br)[C@H](O)[C@@]2(C=C1Br)CC(C(=O)NCCCCCN=C(N)N)=NO2	> 10
CC(=O)OC1CC2c3cccc4c3C(CC2N(C)C1=O)CN4C(=O)c1ccccc1 (stereo unspecified)	42.1

These compounds were tested on SNB-75 CNS (assay: growth of human tumour cells (NCI), 48 h).

SMILES	TGI [µM]
COc1ccc(C[N+]23C(CC[C@H]2c2ccccc2)CC[C@H]3c2ccccc2)cc1 (stereo partly specified)	54.1
CC(=O)c1sc2c(c1OC(=O)c1cccs1)c(=O)n(-c1ccccc1)c(=S)n2-c1ccccc1	68.8
NS(=O)(=O)c1ccc(-n2c(-c3cccs3)nc3ccc(I)cc3c2=O)cc1	87.4
CCOC(=O)CC1c2ccc(O)cc2OC(=O)C1c1ccc([N+](=O)[O-])cc1 (stereo unspecified)	56
CCOC(=O)C1(C(=O)OCC)CN(CC)CN(c2ccccc2)C1	39.3
COC1=C(Br)[C@H](O)[C@@]2(C=C1Br)CC(C(=O)NCCCCCN=C(N)N)=NO2	> 10

These compounds were tested on HL-60(TB) leukemia (assay: growth of human tumour cells (NCI), 48 h).

SMILES	TGI [µM]
COc1ccc(C[N+]23C(CC[C@H]2c2ccccc2)CC[C@H]3c2ccccc2)cc1 (stereo partly specified)	24.7
CC(=O)c1sc2c(c1OC(=O)c1cccs1)c(=O)n(-c1ccccc1)c(=S)n2-c1ccccc1	52.2
NS(=O)(=O)c1ccc(-n2c(-c3cccs3)nc3ccc(I)cc3c2=O)cc1	64.4
CCOC(=O)CC1c2ccc(O)cc2OC(=O)C1c1ccc([N+](=O)[O-])cc1 (stereo unspecified)	60
CCOC(=O)C1(C(=O)OCC)CN(CC)CN(c2ccccc2)C1	50.1
COC1=C(Br)[C@H](O)[C@@]2(C=C1Br)CC(C(=O)NCCCCCN=C(N)N)=NO2	> 10
CC(=O)OC1CC2c3cccc4c3C(CC2N(C)C1=O)CN4C(=O)c1ccccc1 (stereo unspecified)	44

What follows are compounds tested on NCI-H522 lung (assay: growth of human tumour cells (NCI), 48 h).

SMILES	TGI [µM]
COc1ccc(C[N+]23C(CC[C@H]2c2ccccc2)CC[C@H]3c2ccccc2)cc1 (stereo partly specified)	45.4
CC(=O)c1sc2c(c1OC(=O)c1cccs1)c(=O)n(-c1ccccc1)c(=S)n2-c1ccccc1	6.07
NS(=O)(=O)c1ccc(-n2c(-c3cccs3)nc3ccc(I)cc3c2=O)cc1	39.1
CCOC(=O)CC1c2ccc(O)cc2OC(=O)C1c1ccc([N+](=O)[O-])cc1 (stereo unspecified)	66.5
CCOC(=O)C1(C(=O)OCC)CN(CC)CN(c2ccccc2)C1	56.1
COC1=C(Br)[C@H](O)[C@@]2(C=C1Br)CC(C(=O)NCCCCCN=C(N)N)=NO2	> 10
CC(=O)OC1CC2c3cccc4c3C(CC2N(C)C1=O)CN4C(=O)c1ccccc1 (stereo unspecified)	34.4

Each compound was assayed on BT-549 breast (assay: growth of human tumour cells (NCI), 48 h).

SMILES	TGI [µM]
NS(=O)(=O)c1ccc(-n2c(-c3cccs3)nc3ccc(I)cc3c2=O)cc1	37.9
CCOC(=O)C1(C(=O)OCC)CN(CC)CN(c2ccccc2)C1	86.6
COC1=C(Br)[C@H](O)[C@@]2(C=C1Br)CC(C(=O)NCCCCCN=C(N)N)=NO2	> 10
CC(=O)OC1CC2c3cccc4c3C(CC2N(C)C1=O)CN4C(=O)c1ccccc1 (stereo unspecified)	33.1

Each compound was assayed on KM12 colon (assay: growth of human tumour cells (NCI), 48 h).

SMILES	TGI [µM]
COc1ccc(C[N+]23C(CC[C@H]2c2ccccc2)CC[C@H]3c2ccccc2)cc1 (stereo partly specified)	24.4
CC(=O)c1sc2c(c1OC(=O)c1cccs1)c(=O)n(-c1ccccc1)c(=S)n2-c1ccccc1	59
NS(=O)(=O)c1ccc(-n2c(-c3cccs3)nc3ccc(I)cc3c2=O)cc1	59.3
CCOC(=O)CC1c2ccc(O)cc2OC(=O)C1c1ccc([N+](=O)[O-])cc1 (stereo unspecified)	97.8
CCOC(=O)C1(C(=O)OCC)CN(CC)CN(c2ccccc2)C1	> 100
COC1=C(Br)[C@H](O)[C@@]2(C=C1Br)CC(C(=O)NCCCCCN=C(N)N)=NO2	> 10
CC(=O)OC1CC2c3cccc4c3C(CC2N(C)C1=O)CN4C(=O)c1ccccc1 (stereo unspecified)	55.8

These compounds were tested on OVCAR-8 ovarian (assay: growth of human tumour cells (NCI), 48 h).

SMILES	TGI [µM]
COc1ccc(C[N+]23C(CC[C@H]2c2ccccc2)CC[C@H]3c2ccccc2)cc1 (stereo partly specified)	> 100
CC(=O)c1sc2c(c1OC(=O)c1cccs1)c(=O)n(-c1ccccc1)c(=S)n2-c1ccccc1	21.1
NS(=O)(=O)c1ccc(-n2c(-c3cccs3)nc3ccc(I)cc3c2=O)cc1	> 100
CCOC(=O)CC1c2ccc(O)cc2OC(=O)C1c1ccc([N+](=O)[O-])cc1 (stereo unspecified)	75.7
CCOC(=O)C1(C(=O)OCC)CN(CC)CN(c2ccccc2)C1	47.4
COC1=C(Br)[C@H](O)[C@@]2(C=C1Br)CC(C(=O)NCCCCCN=C(N)N)=NO2	> 10
CC(=O)OC1CC2c3cccc4c3C(CC2N(C)C1=O)CN4C(=O)c1ccccc1 (stereo unspecified)	48.8

These compounds were tested on NCI/ADR-RES ovarian (assay: growth of human tumour cells (NCI), 48 h).

SMILES	TGI [µM]
CC(=O)c1sc2c(c1OC(=O)c1cccs1)c(=O)n(-c1ccccc1)c(=S)n2-c1ccccc1	43.3
NS(=O)(=O)c1ccc(-n2c(-c3cccs3)nc3ccc(I)cc3c2=O)cc1	86.3
CCOC(=O)CC1c2ccc(O)cc2OC(=O)C1c1ccc([N+](=O)[O-])cc1 (stereo unspecified)	72.6
CCOC(=O)C1(C(=O)OCC)CN(CC)CN(c2ccccc2)C1	> 100
COC1=C(Br)[C@H](O)[C@@]2(C=C1Br)CC(C(=O)NCCCCCN=C(N)N)=NO2	> 10
CC(=O)OC1CC2c3cccc4c3C(CC2N(C)C1=O)CN4C(=O)c1ccccc1 (stereo unspecified)	45.1

What follows are compounds tested on NCI-H226 lung (assay: growth of human tumour cells (NCI), 48 h).

SMILES	TGI [µM]
COc1ccc(C[N+]23C(CC[C@H]2c2ccccc2)CC[C@H]3c2ccccc2)cc1 (stereo partly specified)	55
CC(=O)c1sc2c(c1OC(=O)c1cccs1)c(=O)n(-c1ccccc1)c(=S)n2-c1ccccc1	9.84
NS(=O)(=O)c1ccc(-n2c(-c3cccs3)nc3ccc(I)cc3c2=O)cc1	87.3
CCOC(=O)CC1c2ccc(O)cc2OC(=O)C1c1ccc([N+](=O)[O-])cc1 (stereo unspecified)	58.4
COC1=C(Br)[C@H](O)[C@@]2(C=C1Br)CC(C(=O)NCCCCCN=C(N)N)=NO2	> 10
CC(=O)OC1CC2c3cccc4c3C(CC2N(C)C1=O)CN4C(=O)c1ccccc1 (stereo unspecified)	96.5

These compounds were tested on SF-268 CNS (assay: growth of human tumour cells (NCI), 48 h).

SMILES	TGI [µM]
COc1ccc(C[N+]23C(CC[C@H]2c2ccccc2)CC[C@H]3c2ccccc2)cc1 (stereo partly specified)	> 100
CC(=O)c1sc2c(c1OC(=O)c1cccs1)c(=O)n(-c1ccccc1)c(=S)n2-c1ccccc1	51.5
NS(=O)(=O)c1ccc(-n2c(-c3cccs3)nc3ccc(I)cc3c2=O)cc1	86.8
CCOC(=O)CC1c2ccc(O)cc2OC(=O)C1c1ccc([N+](=O)[O-])cc1 (stereo unspecified)	> 100
CCOC(=O)C1(C(=O)OCC)CN(CC)CN(c2ccccc2)C1	> 100
COC1=C(Br)[C@H](O)[C@@]2(C=C1Br)CC(C(=O)NCCCCCN=C(N)N)=NO2	> 10
CC(=O)OC1CC2c3cccc4c3C(CC2N(C)C1=O)CN4C(=O)c1ccccc1 (stereo unspecified)	> 100

Each compound was assayed on UACC-62 melanoma (assay: growth of human tumour cells (NCI), 48 h).

SMILES	TGI [µM]
CC(=O)c1sc2c(c1OC(=O)c1cccs1)c(=O)n(-c1ccccc1)c(=S)n2-c1ccccc1	37.9
NS(=O)(=O)c1ccc(-n2c(-c3cccs3)nc3ccc(I)cc3c2=O)cc1	46.2
CCOC(=O)CC1c2ccc(O)cc2OC(=O)C1c1ccc([N+](=O)[O-])cc1 (stereo unspecified)	84.4
CCOC(=O)C1(C(=O)OCC)CN(CC)CN(c2ccccc2)C1	68.5
COC1=C(Br)[C@H](O)[C@@]2(C=C1Br)CC(C(=O)NCCCCCN=C(N)N)=NO2	> 10
CC(=O)OC1CC2c3cccc4c3C(CC2N(C)C1=O)CN4C(=O)c1ccccc1 (stereo unspecified)	50.3

Each compound was assayed on SK-MEL-5 melanoma (assay: growth of human tumour cells (NCI), 48 h).

SMILES	TGI [µM]
COc1ccc(C[N+]23C(CC[C@H]2c2ccccc2)CC[C@H]3c2ccccc2)cc1 (stereo partly specified)	15.7
CC(=O)c1sc2c(c1OC(=O)c1cccs1)c(=O)n(-c1ccccc1)c(=S)n2-c1ccccc1	25.8
NS(=O)(=O)c1ccc(-n2c(-c3cccs3)nc3ccc(I)cc3c2=O)cc1	47.1
CCOC(=O)CC1c2ccc(O)cc2OC(=O)C1c1ccc([N+](=O)[O-])cc1 (stereo unspecified)	29
CCOC(=O)C1(C(=O)OCC)CN(CC)CN(c2ccccc2)C1	> 100
COC1=C(Br)[C@H](O)[C@@]2(C=C1Br)CC(C(=O)NCCCCCN=C(N)N)=NO2	> 10
CC(=O)OC1CC2c3cccc4c3C(CC2N(C)C1=O)CN4C(=O)c1ccccc1 (stereo unspecified)	29.1

Each compound was assayed on SK-MEL-2 melanoma (assay: growth of human tumour cells (NCI), 48 h).

SMILES	TGI [µM]	GI50 [µM]
COc1ccc(C[N+]23C(CC[C@H]2c2ccccc2)CC[C@H]3c2ccccc2)cc1 (stereo partly specified)	43	–
NS(=O)(=O)c1ccc(-n2c(-c3cccs3)nc3ccc(I)cc3c2=O)cc1	47.6	21.8
CCOC(=O)CC1c2ccc(O)cc2OC(=O)C1c1ccc([N+](=O)[O-])cc1 (stereo unspecified)	40.1	–
COC1=C(Br)[C@H](O)[C@@]2(C=C1Br)CC(C(=O)NCCCCCN=C(N)N)=NO2	> 10	–
CC(=O)OC1CC2c3cccc4c3C(CC2N(C)C1=O)CN4C(=O)c1ccccc1 (stereo unspecified)	64.9	–

What follows are compounds tested on UACC-257 melanoma (assay: growth of human tumour cells (NCI), 48 h).

SMILES	TGI [µM]
COc1ccc(C[N+]23C(CC[C@H]2c2ccccc2)CC[C@H]3c2ccccc2)cc1 (stereo partly specified)	50.5
CC(=O)c1sc2c(c1OC(=O)c1cccs1)c(=O)n(-c1ccccc1)c(=S)n2-c1ccccc1	43.9
NS(=O)(=O)c1ccc(-n2c(-c3cccs3)nc3ccc(I)cc3c2=O)cc1	19.3
CCOC(=O)CC1c2ccc(O)cc2OC(=O)C1c1ccc([N+](=O)[O-])cc1 (stereo unspecified)	94.5
CCOC(=O)C1(C(=O)OCC)CN(CC)CN(c2ccccc2)C1	31.1
COC1=C(Br)[C@H](O)[C@@]2(C=C1Br)CC(C(=O)NCCCCCN=C(N)N)=NO2	> 10
CC(=O)OC1CC2c3cccc4c3C(CC2N(C)C1=O)CN4C(=O)c1ccccc1 (stereo unspecified)	49.9

What follows are compounds tested on TK-10 renal (assay: growth of human tumour cells (NCI), 48 h).

SMILES	TGI [µM]
COc1ccc(C[N+]23C(CC[C@H]2c2ccccc2)CC[C@H]3c2ccccc2)cc1 (stereo partly specified)	> 100
